According to patent publication US20110124606A1, “SENSE-IMPROVING AGENT” (SNOW BRAND MILK PRODUCTS CO., LTD., priority 2007, published 2011):

Key:
PC-12 cells = assay: Cell differentiation-promoting activity: PC-12 cells cultured in culture supernatant of treated 3T3 cells; type: cell-based; conditions: supernatant of 3T3 cells cultured two days with 200 μg/l
Description: 3T3 cells, which is fibroblast cell strain known to be present in skin, were cultured for two days under the condition that the milk-derived phospholipid-containing composition of Example 1 or 2 was added at a concentration of 200 μg/l (Example 1: Group A, Example 2: Group B). As a control, 3T3 cells were cultured for two days without adding the milk-derived phospholipid-containing composition obtained in Example 1 or 2 (Group C). PC-12 cells (nerve model cells) were cultured using the culture supernatant thereof, and morphological differentiation of the PC-12 cells was observed. […] It was confirmed that 95% or more of the cells were differentiated when using the culture supernatant of the group A or B. On the other hand, the PC-12 cells were not differentiated when using the culture supernatant of the group C. No differentiation was observed through an optical microscope even though the experiment was repeated several times. It was thus confirmed that the milk-derived phospholipid-containing compositions obtained in Examples 1 and 2 promote differentiation of the PC-12 cells which was nerve model cells.
3T3 cells, which is fibroblast cell strain known to be present in skin, were cultured for two days under the condition that the sphingomyelin obtained in Example 3 was added at a concentration of 200 μg/l (group A). […]

[1] = test system: Healthy elderly persons who suffered deterioration in sensation in the hands; assay: Pain sensation in palm and foot by Algesiometer, oral intake of sphingomyelin (Test Example 5); type: in vivo, human; conditions: for Hand Foot bottom sensation measurement (before intake): Average value / Hand sensation measurement (before intake): Average value / Hand Foot bottom sensation measurement (after intake for 12 weeks): Average value / Hand sensation measurement (after intake for 12 weeks): Average value: Normal 0 to Deterioration III 3 points; for Hand Foot bottom sensation measurement (before intake): Deterioration I / Hand Foot bottom sensation measurement (before intake): Deterioration II / Hand Foot bottom sensation measurement (before intake): Deterioration III / Hand Foot bottom sensation measurement (before intake): Normal / Hand sensation measurement (before intake): Deterioration I / Hand sensation measurement (before intake): Deterioration II / Hand sensation measurement (before intake): Deterioration III / Hand sensation measurement (before intake): Normal / Hand Foot bottom sensation measurement (after intake for 12 weeks): Deterioration I / Hand Foot bottom sensation measurement (after intake for 12 weeks): Deterioration II / Hand Foot bottom sensation measurement (after intake for 12 weeks): Deterioration III / Hand Foot bottom sensation measurement (after intake for 12 weeks): Normal / Hand sensation measurement (after intake for 12 weeks): Deterioration I / Hand sensation measurement (after intake for 12 weeks): Deterioration II / Hand sensation measurement (after intake for 12 weeks): Deterioration III / Hand sensation measurement (after intake for 12 weeks): Normal: subjects per criterion, 15 per group; for sensation in the palm and the bottom of the foot (in words): 12 weeks
Description: The pain sensation was evaluated using five pins that differ in thickness in combination with five fulcrum positions. The thinnest pin 1 was rolled along the medial side of the arm, and the subject was asked about the degree of normal pain sensation. The pin 1 was then rolled along the palm and the bottom of the foot while sequentially changing the holder fulcrum position to determine the fulcrum position at which the same pain sensation degree as the first pain sensation occurred. The Algesiometer is designed so that the pain sensations with same degree occur between when rolling the pin 1 (fulcrum: 50 g) along the medial side of the arm and when rolling the pin 2 (fulcrum: 50 g) along the palm. The pain sensation was evaluated as follows in accordance with the instruction manual. The pain sensation was evaluated by points, and the average points were calculated. Normal (0 points): The same pain sensation occurred when rolling the pin 2 (fulcrum: 50 g). Deterioration I (1 point): The same pain sensation occurred when rolling the pin 1 (fulcrum: 50 g). Deterioration II (2 points): The same pain sensation occurred when rolling the pin 1 (fulcrum: 60 g): Deterioration III (3 points): The same pain sensation occurred when rolling the pin 1 (fulcrum: 70 g): Healthy elderly persons (average age: 75±3) who suffered deterioration in sensation in the hands were divided into three groups (one group: 15 subjects). The subjects took the sphingomyelin obtained in Example 4 in an amount of 0 mg, 4 mg, or 8 mg for 12 weeks. The pain sensation in the palm and the arch of the foot was measured with 4 criteria (normal, deteriorations I, II, and III) before the intake and after the intake for 12 weeks with reference to the pain sensation in the medial side of the arm using a pain/touch-pressure sensation measuring device (“Algesiometer” manufactured by Intercross Ltd.) in accordance with the instruction manual. After the intake for 12 weeks, a questionnaire survey on improvement in sensation in the hands was carried out to each elderly person. The measurement method and the evaluation method are the same as those employed in Test Example 4.

[2] = test system: Healthy elderly persons who suffered deterioration in sensation in the hands; assay: Questionnaire survey on improvement in sensation, oral intake of sphingomyelin (Test Example 5); type: in vivo, human; conditions: subjects of 15
Description: Healthy elderly persons (average age: 75±3) who suffered deterioration in sensation in the hands were divided into three groups (one group: 15 subjects). The subjects took the sphingomyelin obtained in Example 4 in an amount of 0 mg, 4 mg, or 8 mg for 12 weeks. The pain sensation in the palm and the arch of the foot was measured with 4 criteria (normal, deteriorations I, II, and III) before the intake and after the intake for 12 weeks with reference to the pain sensation in the medial side of the arm using a pain/touch-pressure sensation measuring device (“Algesiometer” manufactured by Intercross Ltd.) in accordance with the instruction manual. After the intake for 12 weeks, a questionnaire survey on improvement in sensation in the hands was carried out to each elderly person. The measurement method and the evaluation method are the same as those employed in Test Example 4.

Which results are given for sphingomyelin [Example 3]?
morphological differentiation of PC-12 cells (PC-12 cells): highly differentiated; differentiation rate of PC-12 cells (PC-12 cells; optical microscope): ≥ 94%

How did the “Hand Foot bottom sensation measurement (before intake): Average value” ([1]; 4 mg group) turn out when sphingomyelin [Example 4] was run?
Its value is 2.1 points.

What about the “Hand sensation measurement (before intake): Average value” ([1]; 4 mg group) of the same substance?
The value was 2.1 points.

What about the “Hand Foot bottom sensation measurement (before intake): Deterioration I” value ([1]; 4 mg group) of the same substance?
The value was 3.

What about the “Hand Foot bottom sensation measurement (before intake): Deterioration II” value ([1]; 4 mg group) of the same substance?
Its value is 7.

What about the “Hand Foot bottom sensation measurement (before intake): Deterioration III” value ([1]; 4 mg group) of the same substance?
The value was 5.

What about the “Hand Foot bottom sensation measurement (before intake): Normal” value ([1]; 4 mg group) of the same substance?
Its value is 0.

And the “Hand sensation measurement (before intake): Deterioration I” value ([1]; 4 mg group)?
The value was 3.

What about the “Hand sensation measurement (before intake): Deterioration II” value ([1]; 4 mg group) of the same substance?
Its value is 7.

And the “Hand sensation measurement (before intake): Deterioration III” value ([1]; 4 mg group)?
Its value is 5.

What about the “Hand sensation measurement (before intake): Normal” value ([1]; 4 mg group) of the same substance?
Its value is 0.

What about the “Hand Foot bottom sensation measurement (before intake): Average value” ([1]; 8 mg group) of the same substance?
The value was 2.3 points.

What about the “Hand sensation measurement (before intake): Average value” ([1]; 8 mg group) of the same substance?
Its value is 2.3 points.

And the “Hand Foot bottom sensation measurement (before intake): Deterioration I” value ([1]; 8 mg group)?
Its value is 2.

And the “Hand Foot bottom sensation measurement (before intake): Deterioration II” value ([1]; 8 mg group)?
The value was 7.

What about the “Hand Foot bottom sensation measurement (before intake): Deterioration III” value ([1]; 8 mg group) of the same substance?
Its value is 6.

And the “Hand Foot bottom sensation measurement (before intake): Normal” value ([1]; 8 mg group)?
Its value is 0.

What about the “Hand sensation measurement (before intake): Deterioration I” value ([1]; 8 mg group) of the same substance?
Its value is 2.

What about the “Hand sensation measurement (before intake): Deterioration II” value ([1]; 8 mg group) of the same substance?
The value was 6.

What about the “Hand sensation measurement (before intake): Deterioration III” value ([1]; 8 mg group) of the same substance?
The value was 7.

What about the “Hand sensation measurement (before intake): Normal” value ([1]; 8 mg group) of the same substance?
The value was 0.

And the “sensation in the palm and the bottom of the foot (in words)” value ([1]; intake 4 mg)?
Its value is “tended to be improved”.

What about the “Hand Foot bottom sensation measurement (after intake for 12 weeks): Average value” ([1]; intake 4 mg) of the same substance?
Its value is 1.7 points.

What about the “Hand sensation measurement (after intake for 12 weeks): Average value” ([1]; intake 4 mg) of the same substance?
The value was 1.5 points.

And the “Hand Foot bottom sensation measurement (after intake for 12 weeks): Deterioration I” value ([1]; intake 4 mg)?
Its value is 5.

What about the “Hand Foot bottom sensation measurement (after intake for 12 weeks): Deterioration II” value ([1]; intake 4 mg) of the same substance?
The value was 7.

And the “Hand Foot bottom sensation measurement (after intake for 12 weeks): Deterioration III” value ([1]; intake 4 mg)?
Its value is 2.

And the “Hand Foot bottom sensation measurement (after intake for 12 weeks): Normal” value ([1]; intake 4 mg)?
The value was 1.

And the “Hand sensation measurement (after intake for 12 weeks): Deterioration I” value ([1]; intake 4 mg)?
Its value is 5.

What about the “Hand sensation measurement (after intake for 12 weeks): Deterioration II” value ([1]; intake 4 mg) of the same substance?
The value was 6.

What about the “Hand sensation measurement (after intake for 12 weeks): Deterioration III” value ([1]; intake 4 mg) of the same substance?
Its value is 2.

What about the “Hand sensation measurement (after intake for 12 weeks): Normal” value ([1]; intake 4 mg) of the same substance?
The value was 2.

What about the “sensation in the palm and the bottom of the foot (in words)” value ([1]; intake 8 mg) of the same substance?
Its value is “significantly improved”.

And the “Hand Foot bottom sensation measurement (after intake for 12 weeks): Average value” ([1]; intake 8 mg)?
The value was 1.6 points.

And the “Hand sensation measurement (after intake for 12 weeks): Average value” ([1]; intake 8 mg)?
Its value is 1.3 points.

And the “Hand Foot bottom sensation measurement (after intake for 12 weeks): Deterioration I” value ([1]; intake 8 mg)?
The value was 7.

What about the “Hand Foot bottom sensation measurement (after intake for 12 weeks): Deterioration II” value ([1]; intake 8 mg) of the same substance?
The value was 4.

And the “Hand Foot bottom sensation measurement (after intake for 12 weeks): Deterioration III” value ([1]; intake 8 mg)?
The value was 3.

And the “Hand Foot bottom sensation measurement (after intake for 12 weeks): Normal” value ([1]; intake 8 mg)?
Its value is 1.

And the “Hand sensation measurement (after intake for 12 weeks): Deterioration I” value ([1]; intake 8 mg)?
Its value is 7.

And the “Hand sensation measurement (after intake for 12 weeks): Deterioration II” value ([1]; intake 8 mg)?
The value was 3.

And the “Hand sensation measurement (after intake for 12 weeks): Deterioration III” value ([1]; intake 8 mg)?
The value was 2.

What about the “Hand sensation measurement (after intake for 12 weeks): Normal” value ([1]; intake 8 mg) of the same substance?
The value was 3.

And the “Foot sensation: Improved” value ([2]; intake 4 mg for 12 weeks)?
Its value is 5.

And the “Foot sensation: Same” value ([2]; intake 4 mg for 12 weeks)?
The value was 9.

What about the “Foot sensation: Worsened” value ([2]; intake 4 mg for 12 weeks) of the same substance?
The value was 1.

And the “Hand sensation: Improved” value ([2]; intake 4 mg for 12 weeks)?
The value was 6.

And the “Hand sensation: Same” value ([2]; intake 4 mg for 12 weeks)?
The value was 7.

And the “Hand sensation: Worsened” value ([2]; intake 4 mg for 12 weeks)?
Its value is 2.

And the “Foot sensation: Improved” value ([2]; intake 8 mg for 12 weeks)?
Its value is 8.

What about the “Foot sensation: Same” value ([2]; intake 8 mg for 12 weeks) of the same substance?
Its value is 7.

And the “Foot sensation: Worsened” value ([2]; intake 8 mg for 12 weeks)?
The value was 0.

What about the “Hand sensation: Improved” value ([2]; intake 8 mg for 12 weeks) of the same substance?
The value was 10.

And the “Hand sensation: Same” value ([2]; intake 8 mg for 12 weeks)?
Its value is 4.

And the “Hand sensation: Worsened” value ([2]; intake 8 mg for 12 weeks)?
Its value is 1.
